From PubChem BioAssay AID2060329 (Molecular Pharmacology Branch, DTP, NCI, 2025) come the findings set out here.

The test deals with MCF7 multi-cell spheroids with HUVEC/MSC, viability. As to the kind of experiment: Anticancer human tumor MCF7 cell line growth inhibition [IpAb].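 For all read-outs here: spheroids exposed to agents for seven days before readout.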 The settings on record: for viability, T/C: stronger effect = lower value. In short, it runs like this:
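Combinations with ipatasertib or abemaciclib were tested on tumour spheroids holding HUVEC (25%) and MSC (15%) alongside 60% malignant cells. Top concentration was at or near clinical Cmax (10 microM if undefined), descending in half-log steps.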

The mark [1] stands for this setting: curve of first compound, second compound 0.1 µM.
Setting [2] is: curve of first compound, second compound 0.316 µM.
Setting [3] is: curve of first compound, second compound 1 µM.
Setting [4] is: second compound 0.1 µM, first compound 0.0316 µM.
Where [5] appears, read: second compound 0.1 µM, first compound 0.1 µM.
Setting [6] is: second compound 0.1 µM, first compound 0.316 µM.
The mark [7] stands for this setting: second compound 0.1 µM, first compound 1 µM.
[8] abbreviates: second compound 0.1 µM, first compound 3.16 µM.
Setting [9] is: second compound 0.1 µM, first compound 10 µM.
Setting [10] is: second compound 0.316 µM, first compound 0.0316 µM.
Where [11] appears, read: second compound 0.316 µM, first compound 0.1 µM.
The mark [12] stands for this setting: second compound 0.316 µM, first compound 0.316 µM.
The mark [13] stands for this setting: second compound 0.316 µM, first compound 1 µM.
[14] abbreviates: second compound 0.316 µM, first compound 3.16 µM.
Setting [15] is: second compound 0.316 µM, first compound 10 µM.
Setting [16] is: second compound 1 µM, first compound 0.0316 µM.
Setting [17] is: second compound 1 µM, first compound 0.1 µM.
Where [18] appears, read: second compound 1 µM, first compound 0.316 µM.
Setting [19] is: second compound 1 µM, first compound 1 µM.
Where [20] appears, read: second compound 1 µM, first compound 3.16 µM.
Where [21] appears, read: second compound 1 µM, first compound 10 µM.
Where [22] appears, read: curve of first compound, second compound 0.01 µM.
Where [23] appears, read: curve of first compound, second compound 0.0316 µM.

Values joined by “and” are separate entries in the source; they are usually repeats but may differ in a detail not shown here. Identical values can stand only once.

As for `Cn1nccc1Nc1nccc(-c2ccn(C(CO)c3ccc(Cl)c(F)c3)c(=O)c2)n1` (stereo unspecified) + CC(C)NCC(C(=O)N1CCN(c2ncnc3c2C(C)CC3O)CC1)c1ccc(Cl)cc1, the IC50 runs as follows: under setting [1], over 10 µM; under setting [2], over 10 µM; under setting [3], over 10 µM; (curve of first compound, second compound 3.16 µM) over 10 µM; (curve of first compound, second compound 10 µM) under 0.0316 µM. The viability, T/C is 82.7% under setting [4]; 85.4% under setting [5]; 91% under setting [6]; 116% under setting [7]; 113% under setting [8]; 98.5% under setting [9]. Further, the viability, T/C runs as follows: under setting [10], 72.7%; under setting [11], 77.4%; under setting [12], 78.3%; under setting [13], 77.6%; under setting [14], 99.6%; under setting [15], 76.8%. Also, the viability, T/C is 65.2% under setting [16]; 66.7% under setting [17]; 74.4% under setting [18]; 74.6% under setting [19]; 77.7% under setting [20]; 77.5% under setting [21]. Besides, the viability, T/C by setting is: (second compound 3.16 µM, first compound 0.0316 µM) 51.9%; (second compound 3.16 µM, first compound 0.1 µM) 55%; (second compound 3.16 µM, first compound 0.316 µM) 52.1%; (second compound 3.16 µM, first compound 1 µM) 56.2%; (second compound 3.16 µM, first compound 3.16 µM) 64.2%; (second compound 3.16 µM, first compound 10 µM) 72.6%. Further, the viability, T/C was 43.8% (second compound 10 µM, first compound 0.0316 µM); 41% (second compound 10 µM, first compound 0.1 µM); 38.4% (second compound 10 µM, first compound 0.316 µM); 49.4% (second compound 10 µM, first compound 1 µM); 44.2% (second compound 10 µM, first compound 3.16 µM); 44.2% (second compound 10 µM, first compound 10 µM).
For `CC(=O)c1c(C)c2cnc(Nc3ccc(N4CCNCC4)cn3)nc2n(C2CCCC2)c1=O`, the viability, T/C is 119% and 97.4% (compound 0.000949 µM); 101% and 97.1% (compound 0.003 µM); 95.5% and 95.7% (compound 0.00949 µM); 96.1% and 115% (compound 0.03 µM); 109% and 95.9% (compound 0.0949 µM); 89.2% and 104% (compound 0.3 µM). For the setting “curve of compound”, the IC50 was over 0.3 µM.
On to `C=CCn1c(=O)c2cnc(Nc3ccc(N4CCN(C)CC4)cc3)nc2n1-c1cccc(C(C)(C)O)n1`, for which the viability, T/C is, setting by setting: (compound 0.0316 µM) 104% and 99.2%; (compound 0.1 µM) 98.9% and 108%; (compound 0.316 µM) 58.2% and 76.1%; (compound 1 µM) 34% and 44.2%; (compound 3.16 µM) 28.5% and 29.7%; (compound 10 µM) 28.2% and 33.6%. Further, under “curve of compound”, the IC50 is 0.463 µM and 0.765 µM.
Turning to `CC1(C)CCC(CN2CCN(c3ccc(C(=O)NS(=O)(=O)c4ccc(NCC5CCOCC5)c([N+](=O)[O-])c4)c(Oc4cnc5[nH]ccc5c4)c3)CC2)=C(c2ccc(Cl)cc2)C1`, the viability, T/C by setting is: (compound 0.0316 µM) 88.4% and 102%; (compound 0.1 µM) 102% and 108%; (compound 0.316 µM) 97.2% and 109%; (compound 1 µM) 94.4% and 98.2%; (compound 3.16 µM) 84.6% and 98.1%; (compound 10 µM) 16.5% and 20.3%. For the same compound, for the setting “curve of compound”, the IC50 is 5.68 µM and 6.45 µM.
Take `Cc1nc(NC(=O)N2CCCC2C(N)=O)sc1-c1ccnc(C(C)(C)C(F)(F)F)c1` (stereo unspecified) + CCN1CCN(Cc2ccc(Nc3ncc(F)c(-c4cc(F)c5nc(C)n(C(C)C)c5c4)n3)nc2)CC1: the IC50 runs as follows: under setting [22], 3.36 µM; under setting [23], 2.43 µM; under setting [1], 2.69 µM; under setting [2], 3.5 µM; under setting [3], 2.73 µM. Moreover, the viability, T/C reads like this: (second compound 0.01 µM, first compound 0.0316 µM) 104%; (second compound 0.01 µM, first compound 0.1 µM) 93.5%; (second compound 0.01 µM, first compound 0.316 µM) 94.8%; (second compound 0.01 µM, first compound 1 µM) 72.6%; (second compound 0.01 µM, first compound 3.16 µM) 52.2%; (second compound 0.01 µM, first compound 10 µM) 23.8%. Further, the viability, T/C runs as follows: (second compound 0.0316 µM, first compound 0.0316 µM) 112%; (second compound 0.0316 µM, first compound 0.1 µM) 108%; (second compound 0.0316 µM, first compound 0.316 µM) 91%; (second compound 0.0316 µM, first compound 1 µM) 63.4%; (second compound 0.0316 µM, first compound 3.16 µM) 48.7%; (second compound 0.0316 µM, first compound 10 µM) 14.2%. In addition, the viability, T/C is 106% under setting [4]; 96.6% under setting [5]; 76% under setting [6]; 59.4% under setting [7]; 56.5% under setting [8]; 27.3% under setting [9]. Moreover, the viability, T/C under setting [10] is 93%; the viability, T/C under setting [11] was 105%; the viability, T/C under setting [12] is 80.7%; the viability, T/C under setting [13] was 61.4%; the viability, T/C under setting [14] is 58.9%; the viability, T/C under setting [15] was 34%. Besides, the viability, T/C by setting is: under setting [16], 92.3%; under setting [17], 80.2%; under setting [18], 65.6%; under setting [19], 69.4%; under setting [20], 48%; under setting [21], 33.1%.
Regarding `CC(C)(C)c1cnc(CSc2cnc(NC(=O)C3CCNCC3)s2)o1` + CCN1CCN(Cc2ccc(Nc3ncc(F)c(-c4cc(F)c5nc(C)n(C(C)C)c5c4)n3)nc2)CC1, the IC50 came to 0.0744 µM under setting [22]; 0.067 µM under setting [23]; 0.0647 µM under setting [1]; 0.0518 µM under setting [2]; 0.0172 µM under setting [3]. Moreover, the viability, T/C is, setting by setting: (second compound 0.01 µM, first compound 0.00949 µM) 112%; (second compound 0.01 µM, first compound 0.03 µM) 93%; (second compound 0.01 µM, first compound 0.0949 µM) 38.9%; (second compound 0.01 µM, first compound 0.3 µM) 23.7%; (second compound 0.01 µM, first compound 0.949 µM) 27.4%; (second compound 0.01 µM, first compound 3 µM) 29.8%. Further, the viability, T/C was 102% (second compound 0.0316 µM, first compound 0.00949 µM); 97.8% (second compound 0.0316 µM, first compound 0.03 µM); 29.4% (second compound 0.0316 µM, first compound 0.0949 µM); 19.5% (second compound 0.0316 µM, first compound 0.3 µM); 26.8% (second compound 0.0316 µM, first compound 0.949 µM); 27.6% (second compound 0.0316 µM, first compound 3 µM). In addition, the viability, T/C is 108% (second compound 0.1 µM, first compound 0.00949 µM); 99.7% (second compound 0.1 µM, first compound 0.03 µM); 25% (second compound 0.1 µM, first compound 0.0949 µM); 21.7% (second compound 0.1 µM, first compound 0.3 µM); 26.9% (second compound 0.1 µM, first compound 0.949 µM); 27.2% (second compound 0.1 µM, first compound 3 µM). Moreover, the viability, T/C is 94.5% (second compound 0.316 µM, first compound 0.00949 µM); 72.3% (second compound 0.316 µM, first compound 0.03 µM); 21.3% (second compound 0.316 µM, first compound 0.0949 µM); 22.3% (second compound 0.316 µM, first compound 0.3 µM); 27.1% (second compound 0.316 µM, first compound 0.949 µM); 30.4% (second compound 0.316 µM, first compound 3 µM). The viability, T/C is, setting by setting: (second compound 1 µM, first compound 0.00949 µM) 63%; (second compound 1 µM, first compound 0.03 µM) 37.8%; (second compound 1 µM, first compound 0.0949 µM) 19.6%; (second compound 1 µM, first compound 0.3 µM) 22.8%; (second compound 1 µM, first compound 0.949 µM) 27.5%; (second compound 1 µM, first compound 3 µM) 32%.

For orientation: IC50 means the midpoint of a concentration-inhibition curve. For orientation: viability, T/C means the result in the treated group divided by that in the control group, in per cent.
